According to ChEMBL document CHEMBL1201861, “Genomics of Drug Sensitity in Cancer screening data, Wellcome Trust Sanger Institute”:
pIC50: −log10 of the molar value.

How the values were obtained:
Test in all cases: cells
SF-539 = assay type: functional, cell-based, Homo sapiens; conditions: Homo sapiens, SF-539;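 also: Read-out is a cell viability assay, with IC50 reflecting inhibition of cell growth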
Description: SANGER: Inhibition of human SF539 cell growth in a cell viability assay.

NCI-H1838 = assay type: functional, cell-based, Homo sapiens; conditions: Homo sapiens, NCI-H1838;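 also: growth inhibition of NCI-H1838 cells, determined with a cell viability readout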
Description: SANGER: Inhibition of human NCI-H1838 cell growth in a cell viability assay.

SNU1 = assay type: functional, cell-based, Homo sapiens; conditions: Homo sapiens, SNU1;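 also: growth inhibition of human NCI-SNU-1 cells, measured with a cell viability assay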
Description: SANGER: Inhibition of human NCI-SNU-1 cell growth in a cell viability assay.

ES3 = assay type: functional, cell-based, Homo sapiens; conditions: Homo sapiens, ES3;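 also: growth inhibition of ES3 cells, read out with a cell viability assay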
Description: SANGER: Inhibition of human ES3 cell growth in a cell viability assay.

UACC-257 = assay type: functional, cell-based, Homo sapiens; conditions: Homo sapiens, UACC-257
Description: SANGER: Inhibition of human UACC-257 cell growth in a cell viability assay.

NCI-H1581 = assay type: functional, cell-based, Homo sapiens; conditions: Homo sapiens, NCI-H1581;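 also: cell growth inhibition read out by a viability assay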
Description: SANGER: Inhibition of human NCI-H1581 cell growth in a cell viability assay.

KU812 cell line = assay type: functional, cell-based, Homo sapiens; conditions: Homo sapiens, KU812;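 also: growth inhibition of KU812 cells, read out with a cell viability assay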
Description: SANGER: Inhibition of human KU812 cell growth in a cell viability assay.

TE-9 = assay type: functional, cell-based, Homo sapiens; conditions: Homo sapiens, TE-9;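 also: cell growth inhibition, measured with a cell viability readout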
Description: SANGER: Inhibition of human TE-9 cell growth in a cell viability assay.

EC-GI-10 = assay type: functional, cell-based, Homo sapiens; conditions: Homo sapiens, EC-GI-10
Description: SANGER: Inhibition of human EC-GI-10 cell growth in a cell viability assay.

RXF 393 = assay type: functional, cell-based, Homo sapiens; conditions: Homo sapiens, RXF 393;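 also: growth inhibition of human RXF 393 cells, read out with a cell viability assay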
Description: SANGER: Inhibition of human RXF393 cell growth in a cell viability assay.

NCI-H446 = assay type: functional, cell-based, Homo sapiens; conditions: Homo sapiens, NCI-H446;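 also: growth inhibition of NCI-H446 cells determined by a cell viability assay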
Description: SANGER: Inhibition of human NCI-H446 cell growth in a cell viability assay.

L-428 = assay type: functional, cell-based, Homo sapiens; conditions: Homo sapiens, L-428
Description: SANGER: Inhibition of human L-428 cell growth in a cell viability assay.

MV4-11 = assay type: functional, cell-based, Homo sapiens, MV-4-11; conditions: Homo sapiens, MV4-11;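 also: cell viability readout measuring growth inhibition of human MV-4-11 cells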
Description: SANGER: Inhibition of human MV-4-11 cell growth in a cell viability assay.

QIMR-WIL = assay type: functional, cell-based, Homo sapiens; conditions: Homo sapiens, QIMR-WIL;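 also: growth inhibition of QIMR-WIL cells, read out with a cell viability assay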
Description: SANGER: Inhibition of human QIMR-WIL cell growth in a cell viability assay.

DB = assay type: functional, cell-based, Homo sapiens; conditions: Homo sapiens, DB
Description: SANGER: Inhibition of human DB cell growth in a cell viability assay.

LU-134-A = assay type: functional, cell-based, Homo sapiens; conditions: Homo sapiens, LU-134-A
Description: SANGER: Inhibition of human LU-134-A cell growth in a cell viability assay.

MS-1 = assay type: functional, cell-based, Homo sapiens; conditions: Homo sapiens, MS-1
Description: SANGER: Inhibition of human MS-1 cell growth in a cell viability assay.

HH = assay type: functional, cell-based, Homo sapiens; conditions: Homo sapiens, HH
Description: SANGER: Inhibition of human HH cell growth in a cell viability assay.

SNB-75 = assay type: functional, cell-based, Homo sapiens; conditions: Homo sapiens, SNB-75;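 also: cell viability assay measuring growth inhibition of human SNB-75 cells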
Description: SANGER: Inhibition of human SNB75 cell growth in a cell viability assay.

Calu-6 = assay type: functional, cell-based, Homo sapiens; conditions: Homo sapiens, Calu-6;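 also: growth of human Calu-6 cells, read out by a cell viability assay, IC50 marking inhibition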
Description: SANGER: Inhibition of human Calu-6 cell growth in a cell viability assay.

NCI-H1648 = assay type: functional, cell-based, Homo sapiens; conditions: Homo sapiens, NCI-H1648;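 also: cell viability assay measuring inhibition of NCI-H1648 cell growth, from the Sanger screening data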
Description: SANGER: Inhibition of human NCI-H1648 cell growth in a cell viability assay.

CAS-1 = assay type: functional, cell-based, Homo sapiens; conditions: Homo sapiens, CAS-1;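 also: growth inhibition of CAS-1 cells, measured with a cell viability assay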
Description: SANGER: Inhibition of human CAS-1 cell growth in a cell viability assay.

HCC2157 = assay type: functional, cell-based, Homo sapiens; conditions: Homo sapiens, HCC2157;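 also: growth inhibition of the cancer cell line, read out as cell viability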
Description: SANGER: Inhibition of human HCC2157 cell growth in a cell viability assay.

K5 = assay type: functional, cell-based, Homo sapiens; conditions: Homo sapiens, K5
Description: SANGER: Inhibition of human K5 cell growth in a cell viability assay.

EW-24 = assay type: functional, cell-based, Homo sapiens; conditions: Homo sapiens, EW-24;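 also: human EW-24 cancer cell line, growth inhibition read out via a cell viability assay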
Description: SANGER: Inhibition of human EW-24 cell growth in a cell viability assay.

DSH1 = assay type: functional, cell-based, Homo sapiens; conditions: Homo sapiens, DSH1;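 also: growth inhibition of human DSH1 cells, measured with a cell viability readout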
Description: SANGER: Inhibition of human DSH1 cell growth in a cell viability assay.

NOMO-1 = assay type: functional, cell-based, Homo sapiens; conditions: Homo sapiens, NOMO-1;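 also: growth inhibition of human NOMO-1 cells measured by a cell viability assay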
Description: SANGER: Inhibition of human NOMO-1 cell growth in a cell viability assay.

AM-38 = assay type: functional, cell-based, Homo sapiens; conditions: Homo sapiens, AM-38;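 also: growth inhibition of AM-38 cells of human origin, read out by a cell viability assay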
Description: SANGER: Inhibition of human AM-38 cell growth in a cell viability assay.

CCRF-CEM = assay type: functional, cell-based, Homo sapiens; conditions: Homo sapiens, CCRF-CEM;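 also: inhibition of CCRF-CEM cell growth, measured by a cell viability assay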
Description: SANGER: Inhibition of human CCRF-CEM cell growth in a cell viability assay.

SK-LMS-1 = assay type: functional, cell-based, Homo sapiens; conditions: Homo sapiens, SK-LMS-1;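 also: growth inhibition of human SK-LMS-1 cells, read out with a cell viability assay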
Description: SANGER: Inhibition of human SK-LMS-1 cell growth in a cell viability assay.

OVCAR-4 = assay type: functional, cell-based, Homo sapiens; conditions: Homo sapiens, OVCAR-4;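 also: growth inhibition of human OVCAR-4 cells, measured with a cell viability assay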
Description: SANGER: Inhibition of human OVCAR-4 cell growth in a cell viability assay.

C2BBe1 = assay type: functional, cell-based, Homo sapiens; conditions: Homo sapiens, C2BBe1;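 also: growth inhibition of C2BBe1 cells, read out through a viability assay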
Description: SANGER: Inhibition of human C2BBe1 cell growth in a cell viability assay.

SW 962 = assay type: functional, cell-based, Homo sapiens; conditions: Homo sapiens, SW 962;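 also: growth inhibition of human SW962 cells, read out by a cell viability assay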
Description: SANGER: Inhibition of human SW962 cell growth in a cell viability assay.

ES4 = assay type: functional, cell-based, Homo sapiens; conditions: Homo sapiens, ES4;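 also: growth inhibition of human ES4 cells, read out by a cell viability assay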
Description: SANGER: Inhibition of human ES4 cell growth in a cell viability assay.

HT = assay type: functional, cell-based, Homo sapiens; conditions: Homo sapiens, HT
Description: SANGER: Inhibition of human HT cell growth in a cell viability assay.

LOX IMVI = assay type: functional, cell-based, Homo sapiens; conditions: Homo sapiens, LOX IMVI
Description: SANGER: Inhibition of human LOXIMVI cell growth in a cell viability assay.

TE-10 = assay type: functional, cell-based, Homo sapiens; conditions: Homo sapiens, TE-10;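 also: growth inhibition of TE-10 cells, measured by a cell viability assay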
Description: SANGER: Inhibition of human TE-10 cell growth in a cell viability assay.

KG-1 = assay type: functional, cell-based, Homo sapiens; conditions: Homo sapiens, KG-1;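 also: growth inhibition of KG-1 cells, read out by a cell viability assay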
Description: SANGER: Inhibition of human KG-1 cell growth in a cell viability assay.

MC116 = assay type: functional, cell-based, Homo sapiens; conditions: Homo sapiens, MC116;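 also: growth inhibition of MC116 cells, read out with a cell viability assay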
Description: SANGER: Inhibition of human MC116 cell growth in a cell viability assay.

TGBC1TKB = assay type: functional, cell-based, Homo sapiens; conditions: Homo sapiens, TGBC1TKB;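 also: growth inhibition of TGBC1TKB cells, read out by a cell viability assay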
Description: SANGER: Inhibition of human TGBC1TKB cell growth in a cell viability assay.

NCI-H720 = assay type: functional, cell-based, Homo sapiens; conditions: Homo sapiens, NCI-H720;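 also: growth inhibition of human NCI-H720 cells determined by a cell viability assay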
Description: SANGER: Inhibition of human NCI-H720 cell growth in a cell viability assay.

IST-SL1 = assay type: functional, cell-based, Homo sapiens; conditions: Homo sapiens, IST-SL1;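 also: growth inhibition of human IST-SL1 cells, read out with a cell viability assay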
Description: SANGER: Inhibition of human IST-SL1 cell growth in a cell viability assay.

DMS-114 = assay type: functional, cell-based, Homo sapiens; conditions: Homo sapiens, DMS-114
KM12 = assay type: functional, cell-based, Homo sapiens; conditions: Homo sapiens, KM12;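 also: KM12 cell growth inhibition, read out with a cell viability assay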
Description: SANGER: Inhibition of human KM12 cell growth in a cell viability assay.

SW872 = assay type: functional, cell-based, Homo sapiens; conditions: Homo sapiens, SW872;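 also: growth inhibition of SW872 cells, read out by a viability assay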
Description: SANGER: Inhibition of human SW872 cell growth in a cell viability assay.

ETK-1 = assay type: functional, cell-based, Homo sapiens; conditions: Homo sapiens, ETK-1;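 also: growth inhibition of human ETK-1 cells, read out with a cell viability assay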
Description: SANGER: Inhibition of human ETK-1 cell growth in a cell viability assay.

OMC-1 = assay type: functional, cell-based, Homo sapiens; conditions: Homo sapiens, OMC-1;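 also: growth inhibition of the OMC-1 cell line, measured by a cell viability assay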
Description: SANGER: Inhibition of human OMC-1 cell growth in a cell viability assay.

LB771-HNC = assay type: functional, cell-based, Homo sapiens; conditions: Homo sapiens, LB771-HNC;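 also: growth inhibition of LB771-HNC human cells, read out with a cell viability assay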
Description: SANGER: Inhibition of human LB771-HNC cell growth in a cell viability assay.

TGBC24TKB = assay type: functional, cell-based, Homo sapiens; conditions: Homo sapiens, TGBC24TKB;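 also: growth inhibition of human TGBC24TKB cells, read out with a cell viability assay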
Description: SANGER: Inhibition of human TGBC24TKB cell growth in a cell viability assay.

COc1cc(N2CCN(C)CC2)ccc1Nc1ncc2c(n1)N(C)c1ccccc1C(=O)N2C
pIC50 (SF-539): < 5.10 | pIC50 (NCI-H1838): < 5.10 | pIC50 (SNU1): < 5.10 | pIC50 (ES3): < 5.10 | pIC50 (UACC-257): 5.15 | pIC50 (NCI-H1581): < 5.10 | pIC50 (KU812 cell line): 5.13 | pIC50 (TE-9): < 5.10 | pIC50 (EC-GI-10): < 5.10 | pIC50 (RXF 393): < 5.10 | pIC50 (NCI-H446): < 5.10 | pIC50 (L-428): < 5.10 | pIC50 (MV4-11): 5.79 | pIC50 (QIMR-WIL): 5.20 | pIC50 (DB): < 5.10 | pIC50 (LU-134-A): < 5.10 | pIC50 (MS-1): 5.33 | pIC50 (HH): 5.34 | pIC50 (SNB-75): 5.13 | pIC50 (Calu-6): < 5.10 | pIC50 (NCI-H1648): < 5.10 | pIC50 (CAS-1): < 5.10 | pIC50 (HCC2157): < 5.10 | pIC50 (K5): < 5.10 | pIC50 (EW-24): < 5.10 | pIC50 (DSH1): < 5.10 | pIC50 (NOMO-1): < 5.10 | pIC50 (AM-38): < 5.10 | pIC50 (CCRF-CEM): < 5.10 | pIC50 (SK-LMS-1): < 5.10 | pIC50 (OVCAR-4): < 5.10 | pIC50 (C2BBe1): < 5.10 | pIC50 (SW 962): < 5.10 | pIC50 (ES4): < 5.10 | pIC50 (HT): < 5.10 | pIC50 (LOX IMVI): < 5.10 | pIC50 (TE-10): 5.16 | pIC50 (KG-1): < 5.10 | pIC50 (MC116): 5.14 | pIC50 (TGBC1TKB): < 5.10 | pIC50 (NCI-H720): < 5.10 | pIC50 (IST-SL1): < 5.10 | pIC50 (DMS-114): < 5.10 | pIC50 (KM12): < 5.10 | pIC50 (SW872): < 5.10 | pIC50 (ETK-1): < 5.10 | pIC50 (OMC-1): < 5.10 | pIC50 (LB771-HNC): < 5.10

COc1cc2ncn(-c3cc(OCc4ccccc4S(C)(=O)=O)c(C#N)s3)c2cc1OC [GSK-319347A]
pIC50 (SF-539): < 5.30 | pIC50 (NCI-H1838): < 5.30 | pIC50 (SNU1): < 5.30 | pIC50 (ES3): < 5.30 | pIC50 (UACC-257): < 5.30 | pIC50 (NCI-H1581): < 5.30 | pIC50 (KU812 cell line): < 5.30 | pIC50 (TE-9): < 5.30 | pIC50 (EC-GI-10): < 5.30 | pIC50 (RXF 393): < 5.30 | pIC50 (NCI-H446): < 5.30 | pIC50 (L-428): < 5.30 | pIC50 (MV4-11): < 5.30 | pIC50 (QIMR-WIL): < 5.30 | pIC50 (DB): < 5.30 | pIC50 (LU-134-A): < 5.30 | pIC50 (MS-1): < 5.30 | pIC50 (HH): < 5.30 | pIC50 (SNB-75): < 5.30 | pIC50 (Calu-6): < 5.30 | pIC50 (NCI-H1648): < 5.30 | pIC50 (CAS-1): < 5.30 | pIC50 (HCC2157): < 5.30 | pIC50 (K5): < 5.30 | pIC50 (EW-24): < 5.30 | pIC50 (DSH1): < 5.30 | pIC50 (NOMO-1): < 5.30 | pIC50 (AM-38): < 5.30 | pIC50 (CCRF-CEM): < 5.30 | pIC50 (SK-LMS-1): < 5.30 | pIC50 (OVCAR-4): < 5.30 | pIC50 (C2BBe1): < 5.30 | pIC50 (SW 962): < 5.30 | pIC50 (ES4): < 5.30 | pIC50 (HT): < 5.30 | pIC50 (LOX IMVI): < 5.30 | pIC50 (TE-10): < 5.30 | pIC50 (KG-1): < 5.30 | pIC50 (MC116): < 5.30 | pIC50 (TGBC1TKB): < 5.30 | pIC50 (NCI-H720): < 5.30 | pIC50 (IST-SL1): < 5.30 | pIC50 (DMS-114): < 5.30 | pIC50 (KM12): < 5.30 | pIC50 (SW872): < 5.30 | pIC50 (ETK-1): < 5.30 | pIC50 (OMC-1): < 5.30 | pIC50 (LB771-HNC): < 5.30

CC1(C)CNc2cc(NC(=O)c3cccnc3NCc3ccncc3)ccc21 [MOTESANIB]
pIC50 (SF-539): < 5.70 | pIC50 (NCI-H1838): < 5.70 | pIC50 (SNU1): < 5.70 | pIC50 (ES3): < 5.70 | pIC50 (UACC-257): < 5.70 | pIC50 (NCI-H1581): < 5.70 | pIC50 (KU812 cell line): < 5.70 | pIC50 (TE-9): < 5.70 | pIC50 (RXF 393): < 5.70 | pIC50 (NCI-H446): < 5.70 | pIC50 (L-428): < 5.70 | pIC50 (MV4-11): < 5.70 | pIC50 (QIMR-WIL): < 5.70 | pIC50 (DB): < 5.70 | pIC50 (LU-134-A): < 5.70 | pIC50 (MS-1): < 5.70 | pIC50 (HH): < 5.70 | pIC50 (SNB-75): < 5.70 | pIC50 (Calu-6): < 5.70 | pIC50 (NCI-H1648): 6.16 | pIC50 (CAS-1): < 5.70 | pIC50 (HCC2157): < 5.70 | pIC50 (K5): < 5.70 | pIC50 (DSH1): < 5.70 | pIC50 (NOMO-1): < 5.70 | pIC50 (TGBC24TKB): < 5.70 | pIC50 (AM-38): < 5.70 | pIC50 (CCRF-CEM): < 5.70 | pIC50 (OVCAR-4): < 5.70 | pIC50 (C2BBe1): < 5.70 | pIC50 (SW 962): < 5.70 | pIC50 (ES4): < 5.70 | pIC50 (HT): < 5.70 | pIC50 (LOX IMVI): < 5.70 | pIC50 (TE-10): < 5.70 | pIC50 (KG-1): < 5.70 | pIC50 (MC116): < 5.70 | pIC50 (TGBC1TKB): < 5.70 | pIC50 (NCI-H720): < 5.70 | pIC50 (IST-SL1): < 5.70 | pIC50 (DMS-114): < 5.70 | pIC50 (KM12): < 5.70 | pIC50 (SW872): < 5.70 | pIC50 (ETK-1): < 5.70 | pIC50 (OMC-1): < 5.70 | pIC50 (LB771-HNC): < 5.70
